Reference: patent EP0578726B1, “VIRUS INACTIVATION METHOD” (VEGATEC, priority 1991, dated 1992)

How the values were obtained:
[1] = system: Herpès Simplex Virus II (HSV II); experiment: Example II: kinetics of HSV II inactivation, titration on receptor cells; assay type: cell-based; settings: after 15 minutes of contact, (III) 5 g/l final concentration
Experimental: Herpès Simplex Virus II (HSV II) de l'exemple 1 est incubé avec une solution de (III) à 5 g/l en concentration finale dans son milieu de culture.
Des prélèvements sont effectués à intervalles de temps 5, 10, 15, 30 et 60 minutes, puis titrés pour leur contenu en virus infectieux sur cellules réceptrices en culture.

[2] = system: C 1 estérase; experiment: Example VIII: inhibitory capacity of treated C 1 Inactivateur towards C 1 estérase; assay type: biochemical; settings: 6 h - 24°C, (III) at 6,5 g/l, % of inhibitory activity of purified C 1 Inactivateur without additive at To
Experimental: La protéine a donc été traitée d'une part avec le procédé solvant-détergent, d'autre part avec (III) à une concentration finale de 6,5 g/l pendant 6 h à 24°C, dans le but d'obtenir l'inactivation des virus éventuellement présents dans la matière première.
Le tableau H montre l'influence du traitment d'inactivation virale sur les propriétés inhibitrices du C 1 Ina essayé sur trois enzymes : C 1 estérase, kallicréine, plasmine.
Le témoin est incubé 6 h à 24°C mais ne contient aucun additif inactivant.
L'activité inhibitrice est exprimée en % de l'activité inhibitrice du C 1 Inactivateur purifié sans additif et dosé à To.

[3] = system: Herpès simplex virus II (HSVII); experiment: Example I: inactivation of HSVII suspensions, detection in cell culture; assay type: cell-based; settings: 6,5 g/l of (III)
Experimental: Herpès simplex virus II (HSVII) est entretenu en culture cellulaire et les suspensions virales obtenues ont une dose infectieuse 50% (DI50) à une dilution de 10⁻⁶.
Les suspensions virales sont mises en contact avec 6,5g/l de (III) pendant 1h, 2h, 4h à 30°C.
Des témoins positifs sont réalisés dans les mêmes conditions d'incubation sans addition de (III).
L'effet virucide de (III) est arrêté par dilution au 1/100e avec du milieu de culture sans virus. La concentration virale atteint alors 10⁴DI50 pour l'effet de dilution.

CCCCCCCNC(=O)OC[C@H]1O[C@H](OC)[C@H](O)[C@@H](O)[C@@H]1O [(III), 6-O-(N-heptylcarbamoyl)méthyl-α-D-glucopyranoside]
activité virale de HSVII [1]: Aucune activité virale de HSVII n'est détectée | Activité anti C 1 estérase ([2]; essai n° 1): 96,2% | Activité anti C 1 estérase ([2]; essai n° 2): 100% | inactivation de HSVII ([3]; 30°C, control titre 10⁴DI50): ≥ 4 log | activité virale de HSVII ([3]; contact 1h, 2h, 4h at 30°C, stopped by 1/100 dilution): Aucune activité virale de HSVII n'est détectée
